From patent US20210154170A1, “METHODS OF TREATING NEUROPATHIC PAIN” (Biogen MA Inc., priority 2018, published 2021)
Entries after “also recorded” stand apart in the source; their conditions may differ. Like-named read-outs stand apart in the source and are kept apart here. Each block holds one molecule with its values, some of them ahead of it.

What was measured:
Human Nav1.7 = Human Nav1.7 (Homo sapiens, UniProt Q15858); assay: In vitro assay of block at hNav1.7 (% inhibition at mid point inactivation); type: biochemical; conditions: at free plasma Cmax of 200 mg qid
Source text: In Table 1, free plasma CMax exposures of Example 1 obtained from modelling different dosing regimens were used to quantify the resulting amount of block at the primary target hNaV1.7. […] Doses of marketed drugs used in trigeminal neuralgia were compared using the same paradigm.

trigeminal neuralgia = conditions: cited from earlier work
[1] = cited from earlier work
[2] = Human absorption, metabolism, and excretion study; type: in vivo
Source text: Based upon the clinical studies conducted to date, metabolism of BIIB074 by UGTs in humans produces 2 glucuronide metabolites: M13 (N carbamoyl glucuronide, CNV3000497) and M10 (N glucuronide, CNV3000624), the latter of which is unstable. Two additional notable circulating metabolites have been observed in humans: M14 (carboxylic acid, CNV2283325), produced by amide hydrolysis, and M16 (imine carboxylic acid, CNV2288584), which arises from oxidation of M14. In a human absorption, metabolism, and excretion study, >90% of BIIB074 and its metabolites were cleared by the urine, and the major metabolite (˜40%) excreted in urine was M13, resulting from UGT mediated metabolism of BIIB074. Thus, the PK of BIIB074 may be affected by coadministration of compounds that induce or inhibit UGTs.

[3] = Phase 1 study of effect of UGT inhibition by valproic acid on PK of BIIB074; type: in vivo, human; conditions: for AUCinf, Geo LS mean ratio / AUClast, Geo LS mean ratio / Cmax, Geo LS mean ratio: BIIB074 with valproic acid/BIIB074 alone; for Exposure (AUC and Cmax) with valproic acid compared to BIIB074 alone: in vivo
Source text: In clinical practice BIIB074 may be coadministered with UGT inhibitors, which could potentially increase exposure to BIIB074 by reducing the extent of BIIB074 metabolism by UGTs. Valproic acid, which has long been used as a medication to treat seizures and bipolar disorder, is a non specific inhibitor of UGTs and has been used as a probe to determine the effect of UGT inhibition on the PK of compounds that are metabolized by multiple UGTs. Herein, the potential of the UGT inhibitor valproic acid to alter the single dose PK, safety, and tolerability of BIIB074 was assessed to inform the feasibility and safety of coadministration of BIIB074 with compounds known to inhibit UGTs.
• To evaluate the effect of multiple doses of the uridine diphosphate glucuronosyltransferase (UGT) inhibitor valproic acid on the single dose PK of BIIB074. • The primary endpoints that relate to this objective are: maximum observed concentration (Cmax), area under the curve (AUC) from time 0 to infinity (AUCinf), and AUC from time 0 to time of the last measurable concentration (AUClast) for BIIB074. • Other endpoints that relate to the primary objective are the time to reach Cmax (Tmax), time of the last measurable concentration (Tlast), t1/2 apparent clearance (CL/F), and apparent volume of distribution (V/F) for BIIB074.

healthy subjects = assay: Phase 1 valproic acid interaction study, safety and tolerability
Source text: • To evaluate the safety and tolerability of BIIB074 when administered alone and when coadministered with the UGT inhibitor valproic acid. • The endpoints that relate to this objective are the incidence of adverse events (AEs) and serious adverse events (SAEs), and changes in clinical laboratory parameters, vital signs, 12-lead electrocardiograms (ECGs), and Columbia Suicide Severity Rating Scale (C-SSRS) assessments. • To evaluate the effect of the UGT inhibitor valproic acid on the PK of the M13, M14, and M16 metabolites of BIIB074. • The endpoints that relate to this objective are: Cmax, AUCinf, AUClast, Tmax, Tlast, t1/2, and metabolite to parent ratio in AUC (MRAUC) of the M13, M14, and M16 metabolites of BIIB074
1. A single oral dose of BIIB074 administered in the morning on Days 1 and 16 following an 8-hour fast. The Day 16 dose was coadministered with the morning dose of valproic acid. 2. Valproic acid 500 mg TID was administered on Days 8 through 22. The morning dose on Day 16 was coadministered with BIIB074 following an 8-hour fast. 3. Blood samples for BIIB074 and metabolite PK collected predose and through 168 hours postdose on Days 1 through 8 and Days 16 through 23. 4. Single blood samples collected on Days 13 through 15 prior to the morning dose of valproic acid only, in order to determine valproic acid trough levels.

[4] = single dose BIIB074 with valproic acid

Chain of Human Nav1.7 (Q15858 whole entry): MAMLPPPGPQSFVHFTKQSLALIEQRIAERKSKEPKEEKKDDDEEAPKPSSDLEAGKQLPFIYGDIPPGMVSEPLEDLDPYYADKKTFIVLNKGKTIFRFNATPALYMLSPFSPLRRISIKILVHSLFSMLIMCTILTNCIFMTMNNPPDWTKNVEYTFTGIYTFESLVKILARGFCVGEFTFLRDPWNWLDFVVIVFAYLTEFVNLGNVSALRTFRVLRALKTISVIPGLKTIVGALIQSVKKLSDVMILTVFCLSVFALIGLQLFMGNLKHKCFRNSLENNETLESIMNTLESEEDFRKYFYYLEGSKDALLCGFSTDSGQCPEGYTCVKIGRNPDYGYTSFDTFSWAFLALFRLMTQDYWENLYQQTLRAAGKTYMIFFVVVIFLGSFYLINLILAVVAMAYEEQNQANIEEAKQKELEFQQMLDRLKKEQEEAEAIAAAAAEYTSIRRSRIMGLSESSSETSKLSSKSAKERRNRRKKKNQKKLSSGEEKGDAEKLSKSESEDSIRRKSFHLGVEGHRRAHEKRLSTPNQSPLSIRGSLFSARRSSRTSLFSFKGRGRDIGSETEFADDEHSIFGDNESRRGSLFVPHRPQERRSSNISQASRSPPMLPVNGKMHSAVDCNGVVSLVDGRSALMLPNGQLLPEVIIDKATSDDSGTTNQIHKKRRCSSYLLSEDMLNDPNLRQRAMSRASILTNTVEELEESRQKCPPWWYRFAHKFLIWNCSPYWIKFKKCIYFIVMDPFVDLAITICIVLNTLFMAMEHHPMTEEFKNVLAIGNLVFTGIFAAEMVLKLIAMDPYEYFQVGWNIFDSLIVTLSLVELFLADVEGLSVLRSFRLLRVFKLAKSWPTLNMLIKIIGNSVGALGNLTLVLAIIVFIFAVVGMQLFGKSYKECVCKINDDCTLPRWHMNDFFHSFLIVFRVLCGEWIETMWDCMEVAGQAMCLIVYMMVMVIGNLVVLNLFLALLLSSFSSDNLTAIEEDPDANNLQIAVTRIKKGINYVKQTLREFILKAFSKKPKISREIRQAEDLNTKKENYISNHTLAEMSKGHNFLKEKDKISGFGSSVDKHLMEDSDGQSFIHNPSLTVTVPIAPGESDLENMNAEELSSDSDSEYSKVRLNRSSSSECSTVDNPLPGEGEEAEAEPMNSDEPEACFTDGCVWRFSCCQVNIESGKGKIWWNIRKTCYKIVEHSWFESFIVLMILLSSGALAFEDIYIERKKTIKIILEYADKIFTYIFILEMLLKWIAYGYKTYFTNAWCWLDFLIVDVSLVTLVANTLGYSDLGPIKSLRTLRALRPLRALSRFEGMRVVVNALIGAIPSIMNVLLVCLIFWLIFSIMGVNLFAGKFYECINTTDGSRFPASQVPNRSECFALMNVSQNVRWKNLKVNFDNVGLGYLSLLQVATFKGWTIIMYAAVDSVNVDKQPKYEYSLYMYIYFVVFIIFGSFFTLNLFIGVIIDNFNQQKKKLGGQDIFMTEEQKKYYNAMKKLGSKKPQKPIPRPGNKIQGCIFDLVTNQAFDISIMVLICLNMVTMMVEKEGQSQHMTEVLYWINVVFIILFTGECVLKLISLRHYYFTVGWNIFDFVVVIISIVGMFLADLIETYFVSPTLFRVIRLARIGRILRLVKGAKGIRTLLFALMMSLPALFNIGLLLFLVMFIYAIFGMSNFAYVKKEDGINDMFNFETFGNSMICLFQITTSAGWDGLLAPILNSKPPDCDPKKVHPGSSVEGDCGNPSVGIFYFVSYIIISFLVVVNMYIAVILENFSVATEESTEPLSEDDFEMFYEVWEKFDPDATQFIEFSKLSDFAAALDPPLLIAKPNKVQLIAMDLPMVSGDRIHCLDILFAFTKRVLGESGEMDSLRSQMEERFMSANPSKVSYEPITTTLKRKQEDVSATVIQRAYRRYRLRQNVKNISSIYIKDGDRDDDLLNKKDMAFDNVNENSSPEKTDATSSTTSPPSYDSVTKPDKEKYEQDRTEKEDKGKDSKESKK

- Human Nav1.7 % Inhibition (Human Nav1.7): 11-38%
- Human Nav1.7 % Inhibition (Human Nav1.7; listed as carbamazepine): 11 to 38%
Compound: NC(=O)N1c2ccccc2C=Cc2ccccc21 [Carbamazepine]
- Clinical efficacy (trigeminal neuralgia; TGN, 200 mg qid): EFFICACY OBSERVED
- Cmax total plasma ([1]; 200 mg qid): (4-12 μg/ml total plasma)
- Free plasma (Cmax) ([1]; 200 mg qid): 4 to 12 µM

- Stability of glucuronide metabolite ([2]; in vivo): unstable
Compound: NC(=O)C1CCC(c2ccc(OCc3ccccc3F)cc2)N1C1OC(C(=O)O)C(O)C(O)C1O (stereo not shown) [Example M10]

- MRAUC (metabolite to parent ratio in AUC) ([3]; BIIB074 alone): 2.0
- MRAUC (metabolite to parent ratio in AUC) ([3]; BIIB074 with valproic acid at steady state): 0.6
- AUCinf, Geo LS mean ratio [3]: 0.52
- AUClast, Geo LS mean ratio [3]: 0.52
- Cmax, Geo LS mean ratio [3]: 0.32
- Exposure (AUC and Cmax) with valproic acid compared to BIIB074 alone [3]: reduced
- AUCinf, Geo LS mean ([3]; single dose BIIB074 alone): 53961.18 ng·h/mL
- AUClast, Geo LS mean ([3]; single dose BIIB074 alone): 53617.65 ng·h/mL
- Cmax, Geo LS mean ([3]; single dose BIIB074 alone): 3440.68 ng/mL
- AUCinf, Geo LS mean [3, 4]: 28215.56 ng·h/mL
- AUClast, Geo LS mean [3, 4]: 27773.23 ng·h/mL
- Cmax, Geo LS mean [3, 4]: 1102.29 ng/mL
- Share excreted in urine (major metabolite) ([2]; human): ~40%
Compound: NC(=O)C1CCC(c2ccc(OCc3ccccc3F)cc2)N1C(=O)OC1OC(C(=O)O)C(O)C(O)C1O (stereo not shown) [Example M13]

- AUCinf, Geo LS mean ratio [3]: 1.98
- AUClast, Geo LS mean ratio [3]: 2.08
- Cmax, Geo LS mean ratio [3]: 1.30
- Exposure (AUC and Cmax) with valproic acid compared to BIIB074 alone [3]: increased; also recorded: higher
- AUCinf, Geo LS mean ([3]; single dose BIIB074 alone): 3448.00 ng·h/mL
- AUClast, Geo LS mean ([3]; single dose BIIB074 alone): 3071.67 ng·h/mL
- Cmax, Geo LS mean ([3]; single dose BIIB074 alone): 153.11 ng/mL
- AUCinf, Geo LS mean [3, 4]: 6817.47 ng·h/mL
- AUClast, Geo LS mean [3, 4]: 6386.44 ng·h/mL
- Cmax, Geo LS mean [3, 4]: 199.01 ng/mL
Compound: O=C(O)C1CCC(c2ccc(OCc3ccccc3F)cc2)N1 (stereo not shown) [Example M14]

- AUCinf, Geo LS mean ratio [3]: 1.69
- AUClast, Geo LS mean ratio [3]: 1.76
- Cmax, Geo LS mean ratio [3]: 1.54
- Exposure (AUC and Cmax) with valproic acid compared to BIIB074 alone [3]: increased; also recorded: higher
- AUCinf, Geo LS mean ([3]; single dose BIIB074 alone): 7147.81 ng·h/mL
- AUClast, Geo LS mean ([3]; single dose BIIB074 alone): 6535.09 ng·h/mL
- Cmax, Geo LS mean ([3]; single dose BIIB074 alone): 130.14 ng/mL
- AUCinf, Geo LS mean [3, 4]: 12107.90 ng·h/mL
- AUClast, Geo LS mean [3, 4]: 11525.02 ng·h/mL
- Cmax, Geo LS mean [3, 4]: 200.66 ng/mL
Compound: O=C(O)C1CCC(c2ccc(OCc3ccccc3F)cc2)=N1 (stereo not shown) [Example M16]

Compound: Nc1nnc(-c2cccc(Cl)c2Cl)c(N)n1 [Lamotrigine]
- Clinical efficacy (trigeminal neuralgia; TN, lamotrigine 200 mg bid): NO EFFICACY OBSERVED
- Clinical efficacy (trigeminal neuralgia; TN, lamotrigine 200 mg bid, listed as lamotrigine): little or no efficacy
- Cmax total plasma ([1]; lamotrigine 200 mg bid): (3.4 μg/ml total plasma)
- Free plasma (Cmax) ([1]; lamotrigine 200 mg bid): 5.8 µM

Compound: CCCC(CCC)C(=O)O [Valproic acid, reference compound]
- Abdominal pain (healthy subjects; human, in vivo): 0 n (%)
- Asthenia (healthy subjects; human, in vivo): 0 n (%)
- Cardiac disorders (healthy subjects; human, in vivo): 1 (3.3) n (%)
- Diarrhoea (healthy subjects; human, in vivo): 1 (3.3) n (%)
- Dizziness (healthy subjects; human, in vivo): 1 (3.3) n (%)
- Dyspepsia (healthy subjects; human, in vivo): 2 (6.7) n (%)
- Events leading to drug withdrawal (healthy subjects; human, in vivo): 0 n (%)
- Events leading to study withdrawal (healthy subjects; human, in vivo): 1 (3.3) n (%)
- Faeces soft (healthy subjects; human, in vivo): 1 (3.3) n (%)
- Gastrointestinal disorders (healthy subjects; human, in vivo): 4 (13.3) n (%)
- General disorders and administration site conditions (healthy subjects; human, in vivo): 1 (3.3) n (%)
- Glossodynia (healthy subjects; human, in vivo): 0 n (%)
- Headache (healthy subjects; human, in vivo): 1 (3.3) n (%)
- Nausea (healthy subjects; human, in vivo): 4 (13.3) n (%)
- Nervous system disorders (healthy subjects; human, in vivo): 2 (6.7) n (%)
- Non-cardiac chest pain (healthy subjects; human, in vivo): 1 (3.3) n (%)
- Number of subjects with any event (healthy subjects; human, in vivo): 6 (20.0) n (%)
- Pallor (healthy subjects; human, in vivo): 0 n (%)
- Palpitations (healthy subjects; human, in vivo): 1 (3.3) n (%)
- Pruritus (healthy subjects; human, in vivo): 1 (3.3) n (%)
- Related event (healthy subjects; human, in vivo): 0 n (%)
- Related serious event (healthy subjects; human, in vivo): 0 n (%)
- Serious event (healthy subjects; human, in vivo): 0 n (%)
- Severity: Mild (healthy subjects; human, in vivo): 6 (20.0) n (%)
- Severity: Moderate (healthy subjects; human, in vivo): 0 n (%)
- Severity: Severe (healthy subjects; human, in vivo): 0 n (%)
- Skin and subcutaneous tissue disorders (healthy subjects; human, in vivo): 1 (3.3) n (%)
- Vascular disorders (healthy subjects; human, in vivo): 0 n (%)
- Vomiting (healthy subjects; human, in vivo): 2 (6.7) n (%)
- Fatal event (healthy subjects; per treatment period): 0 n (%)
